# Legend:
# [1] = tested on: rhinovirus B14; test: Antiviral activity against Human rhinovirus B14; format: functional, organism-based; conditions: Rhinovirus B
# [2] = tested on: Enterovirus; test: Antiviral activity against Rhinovirus at 32 uM relative to control; format: functional
# [3] = tested on: Human rhinovirus sp.; test: Antiviral activity against Human rhinovirus clinical isolates; format: functional, organism-based
# [4] = tested on: Poliovirus 2; test: Antiviral activity against Human poliovirus 2 relative to control; format: functional
# [5] = tested on: Human rhinovirus sp.; test: Antiviral activity against Human rhinovirus clinical isolates relative to control; format: functional
# [6] = tested on: Enterovirus C; test: Antiviral activity against Poliovirus assessed as reduction in virus induced cytopathic effect relative to control; format: functional
# [7] = tested on: Poliovirus 2; test: Antiviral activity against Human poliovirus 2; format: functional, organism-based; conditions: Enterovirus C
# [8] = tested on: Enterovirus C; test: Antiviral activity against Poliovirus assessed as reduction in virus induced cytopathic effect; format: functional, organism-based
# [9] = tested on: Enterovirus C; test: Antiviral activity against Poliovirus; format: functional, organism-based
# [10] = tested on: Enterovirus A71; test: Antiviral activity against Enterovirus A71; format: functional, organism-based; conditions: Enterovirus A
# [11] = tested on: Coxsackievirus B3; test: Antiviral activity against Coxsackievirus B3; format: functional, organism-based; conditions: Enterovirus B
# [12] = tested on: rhinovirus A2; test: Antiviral activity against Human rhinovirus A2; format: functional, organism-based; conditions: Rhinovirus A
# [13] = tested on: rhinovirus B5; test: Antiviral activity against Human rhinovirus B5; format: functional, organism-based; conditions: Rhinovirus B
# [14] = Antiviral activity against Human rhinovirus B3; format: functional
# [15] = Antiviral activity against Human rhinovirus A8; format: functional
# [16] = Antiviral activity against Human rhinovirus B48; format: functional
# [17] = Antiviral activity against Human rhinovirus B42; format: functional
# [18] = tested on: Enterovirus; test: Antiviral activity against Rhinovirus; format: functional, organism-based
# [19] = tested on: enterovirus D68; test: Antiviral activity against Enterovirus D68; format: functional, organism-based; conditions: Enterovirus D
# [20] = tested on: Coxsackievirus A9; test: Antiviral activity against Coxsackievirus A9; format: functional, organism-based; conditions: Enterovirus B
# [21] = tested on: Coxsackievirus A24; test: Antiviral activity against Coxsackievirus A24; format: functional, organism-based; conditions: Enterovirus C
# [22] = tested on: Enterovirus A71; test: Antiviral activity against Enterovirus A71 genotype C; format: functional, organism-based; conditions: Enterovirus A
# [23] = tested on: Enterovirus A71; test: Antiviral activity against Enterovirus A71 genotype A; format: functional, organism-based
# [24] = tested on: Enterovirus A71; test: Antiviral activity against Enterovirus A71 genotype B; format: functional, organism-based; conditions: Enterovirus A
# [25] = tested on: Echovirus E9; test: Antiviral activity against Echovirus 9; format: functional, organism-based; conditions: Enterovirus B
# [26] = Antiviral activity against Echovirus-3; format: functional, Echovirus E3
# [27] = tested on: Poliovirus 2; test: Antiviral activity against Human poliovirus 2 infected in mouse; format: functional, organism-based; conditions: Enterovirus C
# [28] = tested on: Echovirus E11; test: Antiviral activity against Echovirus-11; format: functional, organism-based; conditions: Enterovirus B
# [29] = tested on: HeLa; test: Cytotoxicity against human HeLa cells after 3 days by MTT assay; format: functional, cell-based; conditions: 72 h
# [30] = tested on: Enterovirus; test: Antiviral activity against Enterovirus clinical isolate; format: functional, organism-based
compound,measurement,setting,value
Cc1cc(CCCCCOc2c(Cl)cc(-c3nnn(C)n3)cc2Cl)on1,IC50,[1],1200 nM
COc1ccc(N2CCN(c3cccc(C)c3)CC2)nn1,inhibition at 32 µM,[2],80%
COc1ccc(OCc2ccc(COc3c(Cl)cccc3Cl)cc2)c(Cl)c1,EC50,[3],900 nM
same,Activity,[4],80%
same,Activity,[5],80%
same,inhibition (INH),[6],90%
same,EC50,[7],900 nM
same,EC50,[8],3 to 126 nM
same,EC50,[9],< 76 nM
Cc1cc(CCCCCOc2c(Cl)cc(-c3ccc(Cl)o3)cc2Cl)on1,IC50,[1],2000 nM
Cc1cc(CCCCCOc2c(Cl)cc(-c3ccc(C)o3)cc2Cl)on1,IC50,[1],2640 nM
Cc1cc(CCCCCOc2c(Cl)cc(-c3ccco3)cc2Cl)on1,IC50,[1],710 nM
Cc1cc(CCCCCOc2c(Cl)cc(-c3ncco3)cc2Cl)on1,IC50,[1],1830 nM
Cc1cc(CCCCCOc2c(Cl)cc(-c3cccnc3)cc2Cl)on1,IC50,[1],970 nM
Cc1cc(CCCCCOc2c(Cl)cc(-c3ccc(C)s3)cc2Cl)on1,IC50,[1],5200 nM
Cc1cc(CCCCCOc2c(Cl)cc(-c3ccc(Cl)s3)cc2Cl)on1,IC50,[1],5300 nM
CCc1nc(-c2ccc(OCCC(C)CCN3CCN(c4ccncc4)C3=O)cc2)no1 (centres undefined),EC50,[10],0.5 nM
Cc1cc(CCCOc2c(C)cc(-c3ccc(-c4ccccc4)cc3)cc2C)on1,IC50,[11],1340 nM
same,IC50,[12],9 nM
Cc1cc(CCCOc2c(C)cc(-c3ccc(OC(F)(F)F)cc3)cc2C)on1,IC50,[11],1340 nM
same,IC50,[12],9 nM
Cc1cc(CCCOc2c(C)cc(-c3ccccc3C)cc2C)on1,IC50,[11],1340 nM
same,IC50,[12],9 nM
Cc1cc(CCCCCCOc2ccc(C3=NCCO3)cc2)on1,IC50,[12],100 to 120 nM
same,IC50,[7],8 nM
Cc1cc(CCCCCOc2ccc(C3=NCCO3)cc2)on1,IC50,[12],100 to 120 nM
same,IC50,[7],3 nM
Cc1cc(CCCCCCCOc2ccc(C3=NC(CO)CO3)cc2)on1 (centres undefined),IC50,[12],900 to 2600 nM
same,IC50,[7],900 to 2600 nM
Cc1cc(CCCCCCCOc2ccc(C3=NCC(CO)O3)cc2)on1 (centres undefined),IC50,[12],900 to 2600 nM
same,IC50,[7],900 to 2600 nM
Cc1cc(CCCOc2c(C)cc(-c3cccc(F)c3)cc2C)on1,IC50,[11],1340 nM
same,IC50,[12],9 nM
Cc1cc(CCCOc2c(C)cc(-c3ccc(C(F)(F)F)cc3)cc2C)on1,IC50,[11],1340 nM
same,IC50,[12],9 nM
Cc1cc(CCCOc2c(C)cc(-c3ccc(Cl)cc3)cc2C)on1,IC50,[13],110 nM
same,IC50,[14],120 nM
Cc1cc(CCCOc2c(C)cc(-c3cccc([N+](=O)[O-])c3)cc2C)on1,IC50,[13],350 nM
same,IC50,[14],350 nM
Cc1nc(-c2ccc(OCCC(C)CCN3CCN(c4ccncc4)C3=O)cc2)no1 (centres undefined),EC50,[10],0.9 nM
COc1cc(-c2cc(C)c(OCCCc3cc(C)no3)c(C)c2)cc(OC)c1OC,IC50,[11],1340 nM
same,IC50,[12],9 nM
Cc1cc(CCCOc2c(C)cc(-c3ccc(C)c(C)c3)cc2C)on1,IC50,[11],1340 nM
same,IC50,[12],9 nM
Cc1cc(CCCOc2c(C)cc(-c3cccc(C(F)(F)F)c3)cc2C)on1,IC50,[11],1340 nM
same,IC50,[12],9 nM
Cc1cc(CCCOc2c(C)cc(-c3cccc4ccccc34)cc2C)on1,IC50,[11],1340 nM
same,IC50,[12],9 nM
Cc1cc(CCCCCOc2c(Cl)cc(-c3cnco3)cc2Cl)on1,IC50,[1],12800 nM
Cc1cc(CCCCCOc2c(Cl)cc(-c3cccs3)cc2Cl)on1,IC50,[1],7320 nM
Nc1nc(-c2ccccc2)nc2[nH]nc(Nc3ccc(C(F)(F)F)cc3)c12,IC50,[13],40 to 640 nM
same,IC50,[15],40 to 640 nM
same,IC50,[16],40 to 640 nM
same,IC50,[11],40 to 640 nM
same,IC50,[12],40 to 640 nM
same,IC50,[17],40 to 640 nM
COc1ccc(OCc2ccc(COc3ccc(OC)cc3Cl)cc2)c(Cl)c1,EC50,[18]; Enterovirus,10 nM
Cc1cc(CCCOc2c(C)cc(-c3cc(C(F)(F)F)cc(C(F)(F)F)c3)cc2C)on1,IC50,[11],1340 nM
same,IC50,[12],9 nM
COc1ccc(OCCCCCCn2ccnc2)c(Cl)c1,EC50,[18]; Enterovirus,10200 to 29100 nM
O=C1N(CCCCCOc2ccc(Br)cc2)CCN1c1ccncc1,IC50,[19],2130 nM
same,IC50,[20],470 to 550 nM
same,IC50,[21],470 to 550 nM
same,IC50,[22],300 to 1600 nM
same,IC50,[23],300 to 1600 nM
same,IC50,[24],300 to 1600 nM
same,IC50,[25],2600 nM
COc1ccc(OCCCCCCCc2cc(C)no2)c(Cl)c1,IC50,[18]; Enterovirus,10 to 5800 nM
same,IC50,[26],40 to 150 nM
same,IC50,[27],40 to 150 nM
same,IC50,[28],40 to 150 nM
Cc1cc(CCCCCCCOc2ccc(C3=NC(C)CO3)cc2)on1 (centres undefined),IC50,[12],40 to 60 nM
same,IC50,[7],100 to 120 nM
Cc1cc(CCCCCCCOc2ccc(C3=NC(C)(C)CO3)cc2)on1,IC50,[12],40 to 60 nM
same,IC50,[7],100 to 120 nM
Cc1cc(CCCOc2c(C)cc(-c3ccc(O)cc3)cc2C)on1,IC50,[13],770 nM
same,IC50,[14],770 nM
Cc1cc(CCCOc2c(C)cc(-c3ccc([N+](=O)[O-])cc3)cc2C)on1,IC50,[13],760 nM
same,IC50,[14],760 nM
Cc1cc(CCCOc2c(C)cc(-c3ccc(F)cc3)cc2C)on1,IC50,[13],110 nM
same,IC50,[11],1340 nM
same,IC50,[12],9 nM
same,IC50,[14],120 nM
Cc1cc(CCCOc2c(C)cc(-c3ccccc3F)cc2C)on1,IC50,[13],110 nM
same,IC50,[14],120 nM
Cc1cc(CCCOc2c(C)cc(-c3cccc(O)c3)cc2C)on1,IC50,[13],440 nM
same,IC50,[14],440 nM
Cc1ccc(-c2cc(C)c(OCCCc3cc(C)no3)c(C)c2)cc1,IC50,[13],110 nM
same,IC50,[14],120 nM
Cc1cc(CCCCCCCOc2ccc(C3=NCCO3)cc2)on1 [DISOXARIL],IC50,[12],4 nM
same,IC50,[18],4 to 6200 nM
same,IC50,[7],4 nM
Cc1cc(CCCOc2c(C)cc(-c3noc(C(F)(F)F)n3)cc2C)on1 [PLECONARIL],IC50,[29],≤ 180 nM
same,IC50,[30],≤ 30 nM
